Test results from US20250127778A1, “CANCER IMMUNOTHERAPY COMPOSITION CONTAINING INTERACTION INHIBITOR OF STING AND TRIM29 AS ACTIVE INGREDIENT” (SPARK BIOPHARMA, INC, priority 2021, published 2025).

Experiments:
CD8+ T cells = experiment: T cell death analysis (Annexin V/7-AAD) of CD8+ T cells; assay type: cell-based; settings: alone or in combination with cGAMP, 24 hours; FIG. 21
Procedure: CD8^+ T cells were obtained from the lymph nodes of C57BL/6 mice and separated by using MACS. CD8^+ T cells were activated on plates pre-coated with 1 μg/mL anti-CD3 and 0.5 μg/mL of anti-CD28 in the presence of 5 ng/ml of IL-2. After incubation for 24 hours in a 5% CO2 incubator at 37° C., activated CD8^+ T cells were treated with cGAMP and/or the compound of Formula 1 in various concentrations and incubated for additional 24 hours. The cells were harvested and stained with Annexin V/7-AAD to observe cell death. Data shown refer to at least three independent experiments.

tumor = experiment: Combination with PD-1 antibody immune checkpoint therapeutic agent in tumor model; assay type: in vivo, mouse; settings: intratumoral, combination with intravenous PD-1 antibody compared to PD-1 antibody alone; FIG. 32
From the text: It was confirmed whether the efficacy can be increased in case of treating in combination with existing immune checkpoint therapeutic agents from the efficacy of constructing the systemic anticancer immune system of the compound of Formula 1.

STING [1] = molecular target: T1, STING (Mus musculus, UniProt Q3TBT3); experiment: CETSA and ITDRF in Raw264.7 cells, STING; assay type: binding; parameters: endogenous in cells; host or cells: Raw264.7
T1 sequence (Q3TBT3 1-378): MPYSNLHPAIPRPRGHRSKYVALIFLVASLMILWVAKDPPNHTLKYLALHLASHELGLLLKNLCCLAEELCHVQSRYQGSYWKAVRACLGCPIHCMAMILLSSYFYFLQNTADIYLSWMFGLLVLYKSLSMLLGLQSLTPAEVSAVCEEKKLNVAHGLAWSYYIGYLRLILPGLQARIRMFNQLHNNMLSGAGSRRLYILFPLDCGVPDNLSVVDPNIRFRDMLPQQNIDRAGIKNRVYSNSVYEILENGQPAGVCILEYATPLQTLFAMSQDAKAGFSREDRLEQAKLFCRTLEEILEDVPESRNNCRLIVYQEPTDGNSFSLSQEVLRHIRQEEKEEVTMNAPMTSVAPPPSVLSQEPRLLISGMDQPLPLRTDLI
From the text: It was verified whether the oxopiperazine derivative of the present invention was bound to STING among STING and TRIM29 to inhibit interaction thereof, based on the compound of Formula 1, by the cellular thermal shift assay (CETSA) and the isothermal dose response fingerprint (ITDRF) which were major technologies for verifying the interaction between small molecule compounds and target proteins. (D. M. Molinaetal., Science 2013, 341, 84-87.)
To verify the target of the compound of Formula 1 using the CETSA technique, the human A431 cell lines and mouse Raw264.7 cell lines were seeded on a 100-mm or 150-mm culture dish and cultured for one day. […] Afterwards, centrifugation was performed at 20000 g for 20 minutes at 4° C., the supernatant was transferred to a new container, and each concentration was measured by using the Micro BCA™ protein assay kit (ThermoFisher) according to the protocol of the manufacturer. The concentration of each sample was equally adjusted by using the RIPA lysis buffer, the 5× SDS-PAGE loading buffer (Biosesang) was added according to the ratio of the manufacturer, and the resultant was treated at 95° C. for 5 minutes and analyzed by using the Western blotting method described above.

[2] = system: phosphorylation of downstream signaling proteins TBK1 and IRF3; experiment: Western blotting of STING sub-immune signaling pathway activation; assay type: cell-based; settings: in combination with cGAMP; FIG. 7
Procedure: First, the A431 cell line was seeded in a transparent 12-well plate and cultured for one day. Thereafter, the cells were treated with the compounds of Formulas 1 to 6, respectively, and then cultured for additional 24 hours. Finally, after supernatant culture medium of the cells was removed, the remaining supernatant was diluted and removed with PBS (phosphate buffer saline) to prepare a Western blotting sample. All procedures for preparing Western blotting sample were performed at 4° C. […] The protein concentration of the supernatant was measured by using the Micro BCA™ protein assay kit (ThermoFisher) according to the protocol of the manufacturer. […] The treated samples were analyzed by SDS-PAGE, then transferred to a PVDF membrane, and cultured in a TBST solution containing 4% BSA for 30 minutes. […] Finally, after four TBST washing processes, the solution was developed with an ECL (enhanced chemiluminescence) prime solution of Amersham, the chemical luminescence signal was measured by using ChemiDoc MP of Bio-Rad Laboratories, Inc., the obtained results were quantified by using the ImageLab 6.0 program, and the results were plotted by using the Prism 8.0 program. […]

STING [3] = molecular target: T1, STING; experiment: STING expression level in immune cells inside tumor by flow cytometry; assay type: in vivo; settings: compound alone, FIG. 28
Procedure: As described above, after euthanasia with carbon dioxide, the tumor was extracted, TIL was separated, and intracellular STING staining was performed in the same manner as in <Example 6>.

SMILES: COc1ccc(CC2=CN(c3ccc(C(=O)NC[C@H]4CCCO4)cc3[N+](=O)[O-])[C@H](C(C)C)C(=O)N2Cc2ccc(O)cc2)cc1 [Formula 1, 4-((R)-4-(4-hydroxybenzyl)-2-isopropyl-5-(4-methoxybenzyl)-3-oxo-3,4-dihydropyrazin-1 (2H)-yl)-3-nitro-N-(((R)-tetrahydrofuran-2-yl)methyl)benzamide]
- death of cytotoxic T cells (CD8+ T cells): did not induce or promote the death of cytotoxic T cells
- final tumor weight (tumor): decreased in a concentration-dependent manner
- tumor growth (tumor): decreased in a concentration-dependent manner
- CETSA thermal stability of STING (STING [1]; FIG. 13): induced thermal destabilization by selective binding only to STING
- ITDRF thermal stability of STING (STING [1]; FIG. 14): reduced the thermal stability of STING at high concentrations in a concentration-dependent manner
- degree of phosphorylation of TBK1 and IRF3 [2]: further increased
- amount of STING in tumor-associated macrophages (TAM) and dendritic cells (DC) (STING [3]; tumor extracted one day after final treatment): increased
- effect of increasing STING in M1 compared to M2 macrophages (STING [3]): more noticeably exhibited in M1 macrophages
